Source: ChEMBL document CHEMBL1141062, “Synthesis and evaluation of tricyclic pyrrolopyrimidinones as dipeptide mimetics: inhibition of interleukin-1beta-converting enzyme” (Bioorg Med Chem Lett, 2005)
pIC50: −log10 of the molar value.

How the values were obtained:
Caspase-8 = Caspase-8 (Homo sapiens, UniProt Q14790); test: Inhibitory activity towards CASP8 using fluorogenic substrates following an incubation for over 30 min at 37 degree C
THP-1 = test: Inhibitory concentration against IL-1b production in THP-1 cells; type: functional, cell-based; details: Homo sapiens
Caspase-1 = molecular target: T1, Caspase-1 (Homo sapiens, UniProt P29466); test: Inhibitory activity towards CASP1 using fluorogenic substrates following an incubation for over 30 min at 37 degree C
T1 sequence (P29466 whole entry): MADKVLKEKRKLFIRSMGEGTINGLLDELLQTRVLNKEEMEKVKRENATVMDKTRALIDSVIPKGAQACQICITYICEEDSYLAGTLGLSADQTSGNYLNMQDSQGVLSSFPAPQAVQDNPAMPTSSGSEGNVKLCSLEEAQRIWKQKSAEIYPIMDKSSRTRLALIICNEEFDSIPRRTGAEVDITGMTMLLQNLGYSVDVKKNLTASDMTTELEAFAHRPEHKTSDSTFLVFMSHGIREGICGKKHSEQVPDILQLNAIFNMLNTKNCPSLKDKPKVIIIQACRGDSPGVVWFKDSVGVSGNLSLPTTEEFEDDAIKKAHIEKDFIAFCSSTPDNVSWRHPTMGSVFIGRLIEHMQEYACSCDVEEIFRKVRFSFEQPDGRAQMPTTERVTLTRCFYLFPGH

Caspase-3 = molecular target: T2, Caspase-3 (Homo sapiens, UniProt P42574); test: Inhibitory activity towards CASP3 using fluorogenic substrates following an incubation for over 30 min at 37 degree C
T2 sequence (P42574 whole entry): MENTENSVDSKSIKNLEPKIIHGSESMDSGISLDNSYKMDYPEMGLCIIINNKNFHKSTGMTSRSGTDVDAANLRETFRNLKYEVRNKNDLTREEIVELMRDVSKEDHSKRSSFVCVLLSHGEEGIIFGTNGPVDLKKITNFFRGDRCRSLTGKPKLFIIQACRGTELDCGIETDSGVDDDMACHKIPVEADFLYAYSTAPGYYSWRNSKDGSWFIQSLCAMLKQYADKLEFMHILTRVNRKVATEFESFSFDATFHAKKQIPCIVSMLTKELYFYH

Sequence of Caspase-8 (Q14790 217-374 limits assumed): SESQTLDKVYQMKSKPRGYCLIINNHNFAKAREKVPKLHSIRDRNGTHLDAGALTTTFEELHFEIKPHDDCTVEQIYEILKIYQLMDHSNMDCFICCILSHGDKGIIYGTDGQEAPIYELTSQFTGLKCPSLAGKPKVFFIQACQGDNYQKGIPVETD
Sequence of Caspase-8 (Q14790 385-479 limits assumed): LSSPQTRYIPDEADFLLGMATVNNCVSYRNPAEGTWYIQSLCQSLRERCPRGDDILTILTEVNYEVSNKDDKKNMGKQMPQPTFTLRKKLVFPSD

| pIC50 (Caspase-8) | pIC50 (THP-1) | pIC50 (Caspase-1) | pIC50 (Caspase-3) | SMILES |
| --- | --- | --- | --- | --- |
| 5.00 | 5.00 | 5.34 | 5.00 | O=C1C[C@H](NC(=O)[C@@H]2CCc3nc4ccccc4c(=O)n32)C(O)O1 (some centres undefined) |
| 5.32 | 6.08 | 7.01 | 5.00 | O=C1C[C@H](NC(=O)[C@@H]2CCc3nc4cc(-c5ccc(Cl)cc5)nc-4c(O)n32)C(O)O1 (some centres undefined) |
| 5.74 | 6.28 | 7.26 | 5.36 | O=C1C[C@H](NC(=O)[C@@H]2CCc3nc4cc(-c5cccc(Cl)c5)nc-4c(O)n32)C(O)O1 (some centres undefined) |
| 5.12 | 6.01 | 6.38 | 5.64 | CC(C)(C)c1cc2nc3n(c(O)c-2n1)[C@H](C(=O)N[C@H]1CC(=O)OC1O)CC3 (some centres undefined) |
| 6.47 | 6.60 | 7.85 | 5.73 | O=C1C[C@H](NC(=O)[C@@H]2CCc3nc4cc(-c5ccccc5Cl)nc-4c(O)n32)C(O)O1 (some centres undefined) |
| 5.52 | 5.97 | 6.58 | 5.00 | O=C1C[C@H](NC(=O)[C@@H]2CCc3nc4cc(-c5ccccc5)nc-4c(O)n32)C(O)O1 (some centres undefined) |
